ChEMBL document CHEMBL1681712, “Discovery and biological activity of a novel class I PI3K inhibitor, CH5132799” (Bioorg Med Chem Lett, 2011)
Values belong to the molecule of their own block, whether it stands above or below them. Active and inactive are the calls of the source. The calls are words filed in the database; no cut-off is given here.

Legend:
[1] = target: Phosphatidylinositol 4,5-bisphosphate 3-kinase catalytic subunit alpha isoform (Homo sapiens, UniProt P42336); assay: Inhibition of PI3Kalpha
Sequence of Phosphatidylinositol 4,5-bisphosphate 3-kinase catalytic subunit alpha isoform (P42336 whole entry, canonical isoform): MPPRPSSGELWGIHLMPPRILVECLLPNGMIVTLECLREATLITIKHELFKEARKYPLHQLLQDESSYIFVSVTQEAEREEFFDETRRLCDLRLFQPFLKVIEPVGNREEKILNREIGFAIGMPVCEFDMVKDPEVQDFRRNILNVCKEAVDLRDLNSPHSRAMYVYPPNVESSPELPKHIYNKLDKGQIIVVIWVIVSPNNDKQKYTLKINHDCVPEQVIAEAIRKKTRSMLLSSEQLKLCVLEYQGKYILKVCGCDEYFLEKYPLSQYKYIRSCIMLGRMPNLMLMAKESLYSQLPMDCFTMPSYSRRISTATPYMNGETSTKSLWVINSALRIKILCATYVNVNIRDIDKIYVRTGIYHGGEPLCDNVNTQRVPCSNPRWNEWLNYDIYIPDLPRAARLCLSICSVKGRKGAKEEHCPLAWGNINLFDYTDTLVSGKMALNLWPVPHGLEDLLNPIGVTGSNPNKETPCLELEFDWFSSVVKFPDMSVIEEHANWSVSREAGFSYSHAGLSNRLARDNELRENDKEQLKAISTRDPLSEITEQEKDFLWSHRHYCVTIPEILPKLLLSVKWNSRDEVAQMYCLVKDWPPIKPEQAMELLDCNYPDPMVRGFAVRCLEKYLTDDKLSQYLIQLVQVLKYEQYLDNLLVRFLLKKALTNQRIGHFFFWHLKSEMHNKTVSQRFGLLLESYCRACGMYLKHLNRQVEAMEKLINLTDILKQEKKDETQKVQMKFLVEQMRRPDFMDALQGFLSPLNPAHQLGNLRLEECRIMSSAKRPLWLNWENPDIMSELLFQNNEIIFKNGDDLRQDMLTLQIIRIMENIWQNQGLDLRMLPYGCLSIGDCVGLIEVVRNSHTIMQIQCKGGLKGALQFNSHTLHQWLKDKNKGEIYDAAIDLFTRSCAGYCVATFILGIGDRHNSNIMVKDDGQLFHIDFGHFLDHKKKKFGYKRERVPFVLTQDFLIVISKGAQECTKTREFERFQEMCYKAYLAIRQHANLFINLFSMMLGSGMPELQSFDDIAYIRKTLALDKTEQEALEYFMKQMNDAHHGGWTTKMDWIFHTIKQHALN

[2] = Antiproliferative activity against human KPL4 cells; format: functional, cell-based
[3] = Half life in human liver microsomes assessed as glucuronidation; format: ADME, Microsome
[4] = Half life in human liver microsomes; format: ADME, Microsome
[5] = Oral bioavailability in mouse; format: ADME, organism-based; settings: in vivo
[6] = test system: PC-3; assay: In vivo antitumor activity against human PC3 cells in xenograft model assessed as inhibition of tumor growth at 100 mg/kg, po qd for 11 days relative to control; format: functional; settings: PC-3, 264 h
[7] = test system: PC-3; assay: In vivo antitumor activity against human PC3 cells in xenograft model assessed as inhibition of tumor growth at 25 mg/kg, po qd for 11 days relative to control; format: functional; settings: PC-3, 264 h
[8] = target: Phosphatidylinositol 4-phosphate 3-kinase C2 domain-containing subunit alpha (Homo sapiens, UniProt O00443); assay: Inhibition of PI3KC2alpha
Sequence of Phosphatidylinositol 4-phosphate 3-kinase C2 domain-containing subunit alpha (O00443 whole entry, the tested form may be a part): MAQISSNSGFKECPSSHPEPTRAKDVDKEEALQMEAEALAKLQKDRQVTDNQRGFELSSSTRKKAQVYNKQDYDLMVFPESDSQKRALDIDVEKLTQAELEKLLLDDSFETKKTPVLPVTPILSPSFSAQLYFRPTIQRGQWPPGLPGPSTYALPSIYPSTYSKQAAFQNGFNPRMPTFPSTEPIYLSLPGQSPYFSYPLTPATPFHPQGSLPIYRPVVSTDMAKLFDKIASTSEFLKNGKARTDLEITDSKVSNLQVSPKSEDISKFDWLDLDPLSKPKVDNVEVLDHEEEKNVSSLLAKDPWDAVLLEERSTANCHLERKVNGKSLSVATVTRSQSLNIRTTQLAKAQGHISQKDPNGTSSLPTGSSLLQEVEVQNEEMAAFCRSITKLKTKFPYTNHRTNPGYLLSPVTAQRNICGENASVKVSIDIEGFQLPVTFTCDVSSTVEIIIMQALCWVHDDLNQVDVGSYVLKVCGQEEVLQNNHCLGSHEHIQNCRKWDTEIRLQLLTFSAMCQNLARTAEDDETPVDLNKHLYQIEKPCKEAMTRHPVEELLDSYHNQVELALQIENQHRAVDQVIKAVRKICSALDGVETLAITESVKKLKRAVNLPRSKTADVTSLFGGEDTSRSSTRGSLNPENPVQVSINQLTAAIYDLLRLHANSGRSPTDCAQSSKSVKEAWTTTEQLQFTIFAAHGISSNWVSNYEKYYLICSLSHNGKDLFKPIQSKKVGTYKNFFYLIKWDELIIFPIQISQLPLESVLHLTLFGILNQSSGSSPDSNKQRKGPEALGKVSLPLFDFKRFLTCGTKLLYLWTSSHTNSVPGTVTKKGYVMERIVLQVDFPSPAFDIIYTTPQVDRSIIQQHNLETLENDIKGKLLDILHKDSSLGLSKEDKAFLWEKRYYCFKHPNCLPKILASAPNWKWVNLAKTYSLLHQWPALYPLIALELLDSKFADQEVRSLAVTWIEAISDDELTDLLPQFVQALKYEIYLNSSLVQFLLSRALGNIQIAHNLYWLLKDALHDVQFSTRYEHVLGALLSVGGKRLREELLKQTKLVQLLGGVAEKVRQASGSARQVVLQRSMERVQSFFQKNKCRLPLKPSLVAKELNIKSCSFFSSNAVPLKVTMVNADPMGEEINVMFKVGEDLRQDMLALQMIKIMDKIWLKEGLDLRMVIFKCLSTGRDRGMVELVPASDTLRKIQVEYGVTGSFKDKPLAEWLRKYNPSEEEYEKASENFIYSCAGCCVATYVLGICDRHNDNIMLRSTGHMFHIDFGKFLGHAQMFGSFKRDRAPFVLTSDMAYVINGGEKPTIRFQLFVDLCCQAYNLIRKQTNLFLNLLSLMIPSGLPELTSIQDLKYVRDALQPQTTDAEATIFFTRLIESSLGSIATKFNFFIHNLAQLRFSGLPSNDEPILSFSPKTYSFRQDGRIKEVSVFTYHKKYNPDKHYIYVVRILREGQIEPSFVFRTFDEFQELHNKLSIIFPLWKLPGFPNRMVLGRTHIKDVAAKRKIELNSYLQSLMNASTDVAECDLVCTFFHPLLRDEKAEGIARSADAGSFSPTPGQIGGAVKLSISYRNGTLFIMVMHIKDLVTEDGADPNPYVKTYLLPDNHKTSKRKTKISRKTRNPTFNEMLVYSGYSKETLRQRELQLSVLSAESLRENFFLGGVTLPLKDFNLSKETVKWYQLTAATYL

[9] = target: Phosphatidylinositol 4-phosphate 3-kinase C2 domain-containing subunit beta (Homo sapiens, UniProt O00750); assay: Inhibition of PI3KC2beta
Sequence of Phosphatidylinositol 4-phosphate 3-kinase C2 domain-containing subunit beta (O00750 whole entry, the tested form may be a part): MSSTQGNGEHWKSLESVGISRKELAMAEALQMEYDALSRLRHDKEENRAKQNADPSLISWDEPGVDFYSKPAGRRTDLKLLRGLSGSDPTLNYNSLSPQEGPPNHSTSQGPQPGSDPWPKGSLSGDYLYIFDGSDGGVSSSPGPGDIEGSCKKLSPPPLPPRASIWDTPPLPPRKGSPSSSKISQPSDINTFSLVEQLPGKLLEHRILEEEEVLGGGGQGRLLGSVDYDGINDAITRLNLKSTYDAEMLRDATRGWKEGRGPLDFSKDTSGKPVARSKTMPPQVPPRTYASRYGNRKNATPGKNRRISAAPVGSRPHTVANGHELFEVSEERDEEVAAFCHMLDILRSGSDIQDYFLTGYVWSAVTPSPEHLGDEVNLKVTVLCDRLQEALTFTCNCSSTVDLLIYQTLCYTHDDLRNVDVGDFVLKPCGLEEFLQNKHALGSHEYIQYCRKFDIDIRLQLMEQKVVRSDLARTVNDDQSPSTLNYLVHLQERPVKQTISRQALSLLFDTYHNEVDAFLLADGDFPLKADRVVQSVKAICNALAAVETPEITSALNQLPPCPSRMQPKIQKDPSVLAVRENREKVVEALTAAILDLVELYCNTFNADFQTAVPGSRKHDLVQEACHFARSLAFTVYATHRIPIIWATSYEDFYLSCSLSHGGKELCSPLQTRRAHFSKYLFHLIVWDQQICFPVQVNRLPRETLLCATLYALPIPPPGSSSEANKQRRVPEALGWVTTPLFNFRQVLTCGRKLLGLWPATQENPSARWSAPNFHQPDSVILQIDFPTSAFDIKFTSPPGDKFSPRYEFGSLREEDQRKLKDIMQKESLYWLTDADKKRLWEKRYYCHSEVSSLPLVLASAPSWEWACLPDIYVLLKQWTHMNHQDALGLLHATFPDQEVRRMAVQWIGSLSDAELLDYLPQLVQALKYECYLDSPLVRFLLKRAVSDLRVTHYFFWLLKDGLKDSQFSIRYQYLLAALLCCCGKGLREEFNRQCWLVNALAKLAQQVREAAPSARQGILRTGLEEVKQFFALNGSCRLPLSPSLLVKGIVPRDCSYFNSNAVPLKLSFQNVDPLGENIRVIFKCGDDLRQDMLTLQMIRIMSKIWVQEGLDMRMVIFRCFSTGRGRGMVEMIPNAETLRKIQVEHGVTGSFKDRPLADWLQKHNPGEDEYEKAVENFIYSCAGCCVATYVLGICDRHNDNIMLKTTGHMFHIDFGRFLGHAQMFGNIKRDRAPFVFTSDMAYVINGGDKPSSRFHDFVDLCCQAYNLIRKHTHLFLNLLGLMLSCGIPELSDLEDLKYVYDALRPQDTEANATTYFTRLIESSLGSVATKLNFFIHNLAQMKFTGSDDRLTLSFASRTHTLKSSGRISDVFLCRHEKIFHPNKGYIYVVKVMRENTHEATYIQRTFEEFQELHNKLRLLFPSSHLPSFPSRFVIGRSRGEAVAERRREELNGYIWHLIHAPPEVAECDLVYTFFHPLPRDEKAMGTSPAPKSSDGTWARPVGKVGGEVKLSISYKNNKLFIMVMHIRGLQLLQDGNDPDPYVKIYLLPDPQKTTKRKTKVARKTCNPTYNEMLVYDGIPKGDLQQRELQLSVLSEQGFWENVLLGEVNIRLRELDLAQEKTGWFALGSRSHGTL

[10] = target: Phosphatidylinositol 3-kinase catalytic subunit type 3 (Homo sapiens, UniProt Q8NEB9); assay: Inhibition of Vps34
[11] = target: Serine/threonine-protein kinase mTOR (Homo sapiens, UniProt P42345); assay: Inhibition of mTOR
[12] = Inhibition of protein kinase
[13] = test system: KPL4; assay: Antitumor activity against human KPL4 cells expressing PI3Kalpha H1047R mutant xenografted in mouse assessed as tumor regression at 12.5 mg/kg, po for 6 weeks; format: functional, organism-based; parameters: dose 12.5 mg/kg
[14] = test system: KPL4; assay: Antitumor activity against human KPL4 cells expressing PI3Kalpha H1047R mutant xenografted in mouse assessed as tumor regression at 12.5 mg/kg, po administered intermittent dosing schedule qd for 2 weeks on/1 week off; format: functional, organism-based; parameters: dose 12.5 mg/kg
[15] = test system: KPL4; assay: Antitumor activity against human KPL4 cells expressing PI3Kalpha H1047R mutant xenografted in mouse assessed as tumor regression at 12.5 mg/kg, po administered intermittent dosing schedule 5 days on/2 days off; format: functional, organism-based; parameters: dose 12.5 mg/kg
[16] = Half life in mouse at 2 mg/kg, iv; format: ADME, organism-based; parameters: dose 2 mg/kg, route intravenous; settings: in vivo
[17] = Clearance in mouse at 2 mg/kg, iv; format: ADME, organism-based; parameters: dose 2 mg/kg, route intravenous; settings: in vivo
[18] = AUC (infinity) in mouse at 2 mg/kg, iv; format: ADME, organism-based; parameters: time infinity, dose 2 mg/kg, route intravenous; settings: plasma
[19] = Half life in mouse at 1 mg/kg, po; format: ADME, organism-based; parameters: dose 1 mg/kg, route oral; settings: in vivo
[20] = Tmax in mouse at 1 mg/kg, po; format: ADME, organism-based; parameters: dose 1 mg/kg, route oral; settings: in vivo
[21] = AUC (infinity) in mouse at 1 mg/kg, po; format: ADME, organism-based; parameters: time infinity, dose 1 mg/kg, route oral; settings: plasma
[22] = Oral bioavailability in mouse at 1 mg/kg; format: ADME, organism-based; settings: in vivo
[23] = Half life in rat at 0.5 mg/kg, iv; format: ADME, organism-based; parameters: dose 0.5 mg/kg, route intravenous; settings: in vivo
[24] = Clearance in rat at 0.5 mg/kg, iv; format: ADME, organism-based; parameters: dose 0.5 mg/kg, route intravenous; settings: in vivo
[25] = AUC (infinity) in rat at 0.5 mg/kg, iv; format: ADME, organism-based; parameters: dose 0.5 mg/kg, route intravenous, time infinity; settings: plasma
[26] = Half life in rat at 1 mg/kg, po; format: ADME, organism-based; parameters: dose 1 mg/kg, route oral; settings: in vivo
[27] = Tmax in rat at 1 mg/kg, po; format: ADME, organism-based; parameters: dose 1 mg/kg, route oral; settings: in vivo
[28] = AUC (infinity) in rat at 1 mg/kg, po; format: ADME, organism-based; parameters: time infinity, dose 1 mg/kg, route oral; settings: plasma
[29] = Oral bioavailability in rat at 1 mg/kg; format: ADME, organism-based; settings: in vivo
[30] = Half life in dog at 0.25 mg/kg, iv; format: ADME, organism-based, Canis lupus familiaris; parameters: dose 0.25 mg/kg, route intravenous; settings: in vivo
[31] = Clearance in dog at 0.25 mg/kg, iv; format: ADME, organism-based, Canis lupus familiaris; parameters: dose 0.25 mg/kg, route intravenous; settings: in vivo
[32] = AUC (infinity) in dog at 0.25 mg/kg, iv; format: ADME, organism-based, Canis lupus familiaris; parameters: time infinity, dose 0.25 mg/kg, route intravenous; settings: plasma
[33] = Half life in dog at 1 mg/kg, po; format: ADME, organism-based, Canis lupus familiaris; parameters: dose 1 mg/kg, route oral; settings: in vivo
[34] = Tmax in dog at 1 mg/kg, po; format: ADME, organism-based, Canis lupus familiaris; parameters: dose 1 mg/kg, route oral; settings: in vivo
[35] = AUC (infinity) in dog at 1 mg/kg, po; format: ADME, organism-based, Canis lupus familiaris; parameters: time infinity, dose 1 mg/kg, route oral; settings: plasma
[36] = Oral bioavailability in dog at 1 mg/kg; format: ADME, organism-based, Canis lupus familiaris; settings: in vivo
[37] = Half life in monkey at 0.25 mg/kg, iv; format: ADME, organism-based, Macaca mulatta; parameters: dose 0.25 mg/kg, route intravenous; settings: rhesus monkey, in vivo
[38] = Clearance in monkey at 0.25 mg/kg, iv; format: ADME, organism-based, Macaca mulatta; parameters: dose 0.25 mg/kg, route intravenous; settings: rhesus monkey, in vivo
[39] = Half life in monkey at 1 mg/kg, po; format: ADME, organism-based, Macaca mulatta; parameters: dose 1 mg/kg, route oral; settings: rhesus monkey, in vivo
[40] = Tmax in monkey at 1 mg/kg, po; format: ADME, organism-based, Macaca mulatta; parameters: dose 1 mg/kg, route oral; settings: rhesus monkey, in vivo
[41] = AUC (infinity) in monkey at 1 mg/kg, po; format: ADME, organism-based, Macaca mulatta; parameters: time infinity, dose 1 mg/kg, route oral; settings: rhesus monkey, plasma
[42] = Oral bioavailability in monkey at 1 mg/kg; format: ADME, organism-based, Macaca mulatta; settings: rhesus monkey, in vivo

Structure (SMILES): Oc1cccc(-c2nc(N3CCOCC3)nc3c2CCN3c2cccnc2)c1
IC50 [1]: 41 nM

Structure (SMILES): Nc1ncc(-c2nc(N3CCOCC3)nc3c2CCN3c2cccnc2)cn1
IC50 [1]: 33 nM
IC50 [2]: 15 nM
half-life [3]: > 1 h
half-life [4]: 1.18 h
bioavailability [5]: 41%
inhibition in vivo at 100 mg/kg [6]: 112%

Structure (SMILES): CS(=O)(=O)N1CCc2c(-c3cnc(N)nc3)nc(N3CCOCC3)nc21 [IZORLISIB]
half-life [4]: > 6 h
bioavailability [5]: 101%
inhibition in vivo at 25 mg/kg [7]: 101%
IC50 [8]: > 10000 nM
IC50 [9]: 5300 nM
IC50 [10]: > 10000 nM
IC50 [11]: 1600 nM
IC50 [12]: > 10000 nM
Activity [13]: Active
Activity [14]: Active
Activity [15]: Active
half-life [16]: 1.7 h
clearance [17]: 17.5 mL/min/kg
AUC(0-inf) [18]: 1930 ng·h/mL
half-life [19]: 3.8 h
Tmax [20]: 0.25 h
AUC(0-inf) [21]: 978 ng·h/mL
bioavailability [22]: 101%
half-life [23]: 2.6 h
clearance [24]: 6.3 mL/min/kg
AUC(0-inf) [25]: 1350 ng·h/mL
half-life [26]: 3.5 h
Tmax [27]: 0.8 h
AUC(0-inf) [28]: 1790 ng·h/mL
bioavailability [29]: 66.2%
half-life [30]: 1.6 h
clearance [31]: 6.4 mL/min/kg
AUC(0-inf) [32]: 660 ng·h/mL
half-life [33]: 3.3 h
Tmax [34]: 4.5 h
AUC(0-inf) [35]: 1430 ng·h/mL
bioavailability [36]: 54.2%
half-life [37]: 3.2 h
clearance [38]: 6.2 mL/min/kg
half-life [39]: 6.7 h
Tmax [40]: 4 h
AUC(0-inf) [41]: 2170 ng·h/mL
bioavailability [42]: 78.4%

Continued, in another order:

IC50 [1]: 77 nM
Structure (SMILES): Oc1cccc(-c2nc(N3CCOCC3)nc3c2CCN3c2ccc3nc[nH]c3c2)c1

IC50 [1]: 8.6 nM
half-life [3]: 0.183 h
half-life [4]: 0.35 h
bioavailability [5]: 1.6%
Structure (SMILES): Oc1cccc(-c2nc(N3CCOCC3)nc3c2CCN3c2ccncc2)c1
IC50 [2]: 450 nM
